{"source": "patent US10286038B2", "about": "“Lysosome membrane protein 2 (LIMP-2) based peptides and related uses” (Northwestern University, priority 2016, dated 2019)", "key": {"[1]": {"tested_on": "endogenous GC in Cos 7 cells", "conditions": "biotinylated peptide, neutral pH", "quoted_text": "For pulldown of endogenous and overexpressed GC from N2a cell lysates 20 nmol of LIMP-2-derived peptide (Helix 5 and 3×D) was incubated with 50 μl cell lysate at 4° C. overnight. The cells were harvested in EBC-buffer (Table 3). After blocking and equilibration of the streptavidin beads (see above) the cell lysate/peptide mixtures were added to the beads for 30 min. at room temperature. The supernatant was removed. After extensive washing of the beads with NaPhosphate buffer, the bound peptides and proteins were released from the beads by incubation with Laemmli buffer (see above). After centrifugation for 2 min. at 17,000×g the supernatant was removed (BOUND fraction) and subjected to SDS-Page and Western-blotting. An antibody against human GC (α-hGC, for details see Table 4) was used for detection."}, "recombinant GC": {"target": "T1, recombinant GC (Homo sapiens, UniProt P04062, R534H)", "T1 construct": "purchased Genzyme Therapeutics, Boston, USA", "T1 sequence (P04062 40-536 R534H)": "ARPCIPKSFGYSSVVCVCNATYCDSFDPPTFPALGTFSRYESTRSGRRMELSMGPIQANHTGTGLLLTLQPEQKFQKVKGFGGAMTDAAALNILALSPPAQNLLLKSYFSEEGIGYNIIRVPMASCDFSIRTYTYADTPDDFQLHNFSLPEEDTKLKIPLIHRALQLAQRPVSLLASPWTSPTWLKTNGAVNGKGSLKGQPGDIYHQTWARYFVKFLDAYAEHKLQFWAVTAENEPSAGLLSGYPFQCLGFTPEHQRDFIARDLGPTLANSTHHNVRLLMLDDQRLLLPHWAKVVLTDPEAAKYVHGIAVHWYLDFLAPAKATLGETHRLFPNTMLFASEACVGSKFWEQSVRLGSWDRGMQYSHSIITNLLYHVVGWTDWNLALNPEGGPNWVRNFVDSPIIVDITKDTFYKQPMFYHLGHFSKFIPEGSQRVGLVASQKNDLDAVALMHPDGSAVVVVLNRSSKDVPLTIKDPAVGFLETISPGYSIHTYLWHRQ", "assay": "stabilization assay of recombinant GC at 37° C.", "assay_type": "biochemical", "conditions": "recombinant GC incubated with peptide at 37° C.", "description": "Proteins were visualized by coomassie staining (CBB). […] See also FIG. 6.\nTo address the functional impact of the observed interaction between the helix 5 peptide and recombinant GC, we measured GC activity in the presence of a one- to tenfold molar excess of the helix 5 peptide. […] No effect on enzymatic activity after incubation with the helix 5 peptide or the LIMP-2 ectodomain could be found for recombinant α-mannosidase (LAMAN) further emphasizing the specificity of the helix 5 peptide on GC activity (FIG. 6E). […] To analyze if the increase in GC activity is due to stabilization of the enzyme, recombinant GC was incubated with the helix 5 and the control peptide at 37° C. and the activity of GC was measured at regular intervals (FIG. 3F)."}}, "data": [{"substance": "Biotin-Ttds-LREIIEAMLKAYQQKLFVTHTVDE [helix 5 peptide]", "values": [{"measurement": "co-precipitation of endogenous GC from cellular lysates", "setting": "[1]", "result": "specifically co-precipitated"}, {"measurement": "GC enzymatic activity remaining at 72 hours", "setting": "recombinant GC", "result": "still displayed significant enzymatic activity"}]}]}
